Where two headings read alike, the source gives them in different places.
Assays:
[1] = target: T1, CKIα (Homo sapiens, UniProt P48729); experiment: In vitro kinase assay (Kinase Glo), CKIα; type: biochemical
T1 construct: purchased Invitrogen PV3850
Protocol: A stock solution of 7.4 mM in DMSO was prepared and thermally adapted by heating to c.a. 100 °C for 1 min. Two series of eight samples were prepared with consecutive three-time dilutions from the stock solution. One of the series (‘dark’ samples) was prepared in dark Eppendorf tube, the other series (‘light’ samples) was pre-irradiated with UV light (365 nm, UV lamp Spectroline, ENB-280/FE, 1 × 8 Watt) for 45 min. For compound 9, 1 mM solution in DMSO was thermally adapted by heating to 80 °C for 2 min and split into two vials. One vial was kept in the dark and the other was irradiated with green light (530 nm, 3x Nichia NCSG219B-V1, 3 × 550 mW, Sahlmann Photochemical Solutions) for 60 min. Both dark-kept and irradiated samples were subjected to 8-point 3-fold dilutions. All the solutions were applied to the well plate under a red lamp in the dark room in order to prevent ambient-light-induced photo-isomerization.
The assays were performed on a white, solid-bottom 384-well plates. The total volume for the reaction is 10.5 µl. Firstly, a solution of CKI and peptide was added to the bottom of the well (9 µL). Next, a corresponding solution of the compound (0.5 μL, final 5% DMSO) followed by 50 μM ATP solution (1 μL) were pipetted into the upper corners of each well. The enzymatic reaction was started by spinning down the plate (1800 x g, 2 min).
By employing this method, all reactions were started at the same time, minimizing variance between different samples. Incubation for 3 h at 30 °C or 2 h at 37 °C allowed for the enzymatic phosphorylation of the substrate peptide. As the reaction started, the wells with ‘light’ samples were irradiated with UV light or kept in dark in case of experiment with compound 9. ‘Dark’ (0 min pre-irradiation) wells were covered with an aluminum sticker from the beginning. After the incubation, 10 μL Kinase Glo® (Promega) was applied into the wells and the luminescent signal was recorded by a plate reader (BioTek Synergy H1 or Cytation).
The total volume for the reaction was 10.5 µl. The reaction mixture contained the following: for CKIδ, 4 ng/µl CKIδ (14-520, Eurofins), 50 µM peptide substrate RKKKAEpSVASLTSQCSYSS corresponding to human PER2 Lys659-Ser674, and CKI buffer (40 mM Tris, 10 mM MgCl2, 0.5 mM DTT, 0.1 mg/ml BSA, pH7.4); for CKIα, 1 ng/µl CKIα (PV3850, Invitrogen), 50 µM CKI peptide substrate (60547-1, Anaspec), and CKI buffer.
The data obtained from the in vitro kinase assay was analyzed using GraphPad software, in which the luminescence outcome is normalized. Normalization is done using a luminescent output of the control that contained high concentration of longdaysin (370 µM) as 100% inhibition and DMSO for 0% inhibition. In all graphs, a dose-response fit was used to obtain

[2] = system: U2OS cells; experiment: Circadian phase control in U2OS reporter cells; type: cell-based, human
Source text: Hypothetically, a transient change in period will lead to a phase change, consequently providing a relevant approach to jetlag treatment. Therefore, we applied visible-light responsive modulator 9 to control the circadian phase (Fig. 7). The compound was initially irradiated with green light for inactivation (cis-enriched 9, Fig. 7a, timepoint A) and applied to U2OS cells for luminescence rhythm measurement. On the next day, the cells were irradiated with violet light for compound activation or kept in dark (Fig. 7a, timepoint B).
Fig. 7 Circadian phase control using chronophotopharmacology. Green light (λmax = 530 nm)-irradiated compound 9 was applied to U2OS cells at 0 h (A). On the next day (B), the cells were irradiated with violet light (λmax = 400 nm) for 0 min (black and green lines), 10 min (light violet line), or 20 min (dark violet line). After 48 h or 72 h (C), the cells were irradiated with green light (λmax = 530 nm) for 0 min (black line) or 30 min (green, light violet, and dark violet lines). Luminescence rhythm profiles (average of n = 6) are shown in a. […] Luminescence is given in arbitrary units. n = 6 biologically independent samples. […]
Stable U2OS reporter cells harboring Bmal1-dLuc reporter were suspended in phenol red-free culture medium [DMEM (D2902, Sigma) supplemented with 10% fetal bovine serum, 3.5 mg/mL D-glucose, 3.7 mg/mL sodium bicarbonate, 0.29 mg/mL L-glutamine, 100 units/mL penicillin, and 100 µg/mL streptomycin] and plated onto a white, solid-bottom 384-well plates at 30 µL (3000 cells) per well. […] Luminescence was recorded every 100 min in a microplate reader, Infinite M200Pro (Tecan). For the phase control experiments, cellular light irradiation was performed in a dark 32 °C room and luminescence was recorded in a microplate reader Synergy H1 (BioTek) placed in the same room, to avoid possible effect of transient temperature change on the phase. Circadian period and phase were determined from luminescence rhythms by a curve fitting program MultiCycle (Actimetrics). […]

[3] = thermally adapted trans-isomer kept in the dark, read-out: CKIα IC50, dark

T1 sequence (P48729 whole entry): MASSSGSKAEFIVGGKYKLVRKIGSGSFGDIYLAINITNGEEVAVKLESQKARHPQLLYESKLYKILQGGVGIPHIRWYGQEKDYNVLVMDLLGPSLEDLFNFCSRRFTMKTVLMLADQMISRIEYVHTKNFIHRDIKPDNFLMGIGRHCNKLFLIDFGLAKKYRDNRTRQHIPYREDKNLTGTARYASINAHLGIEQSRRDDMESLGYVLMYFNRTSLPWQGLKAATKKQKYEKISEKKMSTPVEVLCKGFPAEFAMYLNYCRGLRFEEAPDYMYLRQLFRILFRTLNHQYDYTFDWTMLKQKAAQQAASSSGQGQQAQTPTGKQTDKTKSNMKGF

IC50 ([1]; irradiated with UV light (365 nm) before and during the assay, cis-enriched, read-out: CKIα IC50, light) [µM]	fold difference in CKIα inhibition between dark and UV-irradiated sample ([1]; trans vs cis-enriched (365 nm), 5 is stronger under light, the others weaker) [fold]	SMILES	IC50 [1, 3] [µM]	period after green light reversal ([2]; after time point C)	phase delay compared with dark samples, 48 h condition ([2]; violet light activation, reversed by green light after 48 h) [h]	phase delay compared with dark samples, 72 h condition ([2]; violet light activation, reversed by green light after 72 h) [h]	potency relative to longdaysin ([1]; CKI activity)	fold difference in CKIα IC50 between trans-form and cis-isomer ([1]; green light 530 nm vs dark) [fold]	IC50 ([1]; pre-irradiated with green light (530 nm), 86% cis, read-out: CKIα IC50, 530 nm) [µM]
24	8	Cc1nn(C)c(C)c1/N=N/c1cccc(CNc2ncnc3c2ncn3C(C)C)c1 [Compound 8]	3	–	–	–	–	–	–
–	–	CC(C)n1cnc2c(NCc3ccc(F)c(/N=N/c4c(F)cccc4F)c3F)ncnc21 [Compound 9]	5.3	returned to normal	2	4	comparable to that of longdaysin	1.5	8.2
